Experimental data taken from patent US10696693B2, “Fused imidazole derivatives as TGF-beta inhibitors” (Rigel Pharmaceuticals, Inc., priority 2014, dated 2020).
Where two headings read alike, the source gives them in different places.

Assays:
[1] = test system: GDF8; experiment: AlphaScreen SureFire p-SMAD3 (Ser423/425) assay, GDF8-stimulated cells; format: cell-based
Outline: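 Lysate (5 μL) went into 384-well shallow plates with 5 μL of Reaction Buffer, Activation Buffer and AlphaScreen Acceptor bead mix. Plates were sealed, kept dark and shaken for 2 hours at room temperature. Donor beads in dilution buffer (2 μL) were added for another 1½ hours, and p-SMAD3 signal was read on a Synergy-4 or Enspire reader.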

[2] = test system: TGF-β; experiment: AlphaScreen SureFire p-SMAD3 (Ser423/425) assay, TGF-β-stimulated cells; format: cell-based
Outline: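 The p-SMAD-3 (Ser423/425) SureFire assay measured phosphorylation of endogenous SMAD-3 in cell lysates. Cells were plated overnight in collagen-coated plates, exposed to three-fold serially diluted compounds for about 10 minutes, then stimulated with TGFβ. Lysates (5 μL) received acceptor bead mix for 2 hours, then donor beads for 1½ hours before AlphaScreen reading.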

[3] = Mus musculus, MPC-11, read-out: GDF8: inhibition of GDF8 signaling, GDF pSMAD (MPC11), p-SMAD3 (Ser423/425) AlphaScreen in cell lysate, GDF8 stimulation
[4] = Mus musculus, MPC-11, read-out: TGF-β: inhibition of TGF-β signaling, TGF-β pSMAD (MPC-11), p-SMAD3 (Ser423/425) AlphaScreen in cell lysate, TGF-β stimulation
[5] = Mus musculus, MPC-11, p-SMAD3 (Ser423/425) AlphaScreen in cell lysate, MPC11, GDF8 stimulation, read-out: GDF8: inhibition of GDF8 signaling, GDF pSMAD (MPC11)
[6] = Mus musculus, p-SMAD3 (Ser423/425) AlphaScreen in cell lysate, MPC-11, TGF-β stimulation, read-out: TGF-β: inhibition of TGF-β signaling, TGF-β pSMAD (MPC-11)

IC50 [1, 5] [µM]	IC50 [2, 6] [µM]	Compound	further results
–	–	COc1cccc(-c2nc3n(c2-c2ccc4[nH]ncc4c2)CCC3)c1 [Compound 185, 5-(2-(3-methoxyphenyl)-6,7-dihydro-5H-pyrrolo[1,2-a]imidazol-3-yl)-1H-indazole]	IC50 [1, 3]: 0.1 to 1 µM; IC50 [2, 4]: 0.1 to 1 µM
> 1	> 1	[N-]=[N+]=NCC1CCC2(CC1)Cc1nc(-c3ccc(F)cc3)c(-c3ccc4ncnn4c3)n1C2 (centres unmarked) [Compound 85, 3′-([1,2,4]triazolo[1,5-a]pyridin-6-yl)-4-(azidomethyl)-2′-(4-fluorophenyl)-5′H,7′H-spiro[cyclohexane-1,6′-pyrrolo[1,2-a]imidazole]]	–
0.1 to 1	0.1 to 1	Cc1c(F)ccc(-c2nc3n(c2-c2ccc4ncnn4c2)CCC3)c1F [Compound 45, 6-(2-(2,4-difluoro-3-methylphenyl)-6,7-dihydro-5H-pyrrolo[1,2-a]imidazol-3-yl)-[1,2,4]triazolo[1,5-a]pyridine]	–
> 1	> 1	CNC(=O)C1CCC2(CC1)Cc1nc(-c3ccc(F)cc3)c(-c3ccc4ncnn4c3)n1C2 (centres unmarked) [Compound 78, 3′-([1,2,4]triazolo[1,5-a]pyridin-6-yl)-2′-(4-fluorophenyl)-N-methyl-5′H,7′H-spiro[cyclohexane-1,6′-pyrrolo[1,2-a]imidazole]-4-carboxamide]	–
–	–	NC(=O)c1cnc2ccc(-c3c(-c4cc(F)c(F)c(F)c4)nc4n3CCC4)cn12 [Compound 53, 6-(2-(3,4,5-trifluorophenyl)-6,7-dihydro-5H-pyrrolo[1,2-a]imidazol-3-yl)imidazo[1,2-a]pyridine-3-carboxamide]	IC50 [1, 3]: 0.05 to 0.1 µM; IC50 [2, 4]: 0.05 to 0.1 µM
0.1 to 1	0.1 to 1	Fc1ccc(-c2nc3n(c2-c2ccc4nccn4c2)CCC3)cc1 [Compound 2]	–
0.1 to 1	> 1	Cc1cc(-c2nc3n(c2-c2ccc4[nH]ncc4c2)CCC3)c(C)cc1F [Compound 308, 5-(2-(4-fluoro-2,5-dimethylphenyl)-6,7-dihydro-5H-pyrrolo[1,2-a]imidaol-3-yl)-1H-indazole]	–
< 0.05	< 0.05	CC(=O)N1CCn2c1nc(-c1cc(F)cc(F)c1F)c2-c1ccc2ncnn2c1 [Compound 109, 1-(5-([1,2,4]triazolo[1,5-a]pyridin-6-yl)-6-(2,3,5-trifluorophenyl)-2,3-dihydro-1H-imidazo[1,2-a]imidazol-1-yl)ethan-1-one]	–
< 0.05	0.05 to 0.1	Cc1cccc(-c2nc3n(c2-c2ccc4ncsc4c2)CCC3)c1 [Compound 170, 6-(2-(m-tolyl)-6,7-dihydro-5H-pyrrolo[1,2-a]imidazol-3-yl)benzo[d]thiazole]	–
< 0.05	0.05 to 0.1	Fc1ccc(-c2nc3occn3c2-c2ccc3nccn3c2)cc1F [Compound 137, 6-(3,4-difluorophenyl)-5-(imidazo[1,2-a]pyridin-6-yl)imidazo[2,1-b]oxazole]	–
> 1	> 1	Cc1cc(-c2nc3n(c2-c2ccc4[nH]ncc4c2)CCC3)cc(Cl)c1F [Compound 272, 5-(2-(3-chloro-4-fluoro-5-methylphenyl)-6,7-dihydro-5H-pyrrolo[1,2-a]imidazol-3-yl)-1H-indazole]	–
> 1	> 1	CNCC1CCC2(CC1)Cc1nc(-c3ccc(F)cc3)c(-c3ccc4ncnn4c3)n1C2 (centres unmarked) [Compound 86, 1-(3′-([1,2,4]triazolo[1,5-a]pyridin-6-yl)-2′-(4-fluorophenyl)-5′H,7′H-spiro[cyclohexane-1,6′-pyrrolo[1,2-a]imidazol]-4-yl)-N-methylmethanamine]	–
0.1 to 1	> 1	Cc1cc(F)c(Cl)cc1-c1nc2n(c1-c1ccc3[nH]ncc3c1)CCC2 [Compound 296, 5-(2-(5-chloro-4-fluoro-2-methylphenyl)-6,7-dihydro-5H-pyrrolo[1,2-a]imidaol-3-yl)-1H-indazole]	–
–	–	Cc1cc(-c2nc3n(c2-c2ccc4nccnc4c2)CCC3)c(Cl)cc1F [Compound 321, 6-(2-(2-chloro-4-fluoro-5-methylphenyl)-6,7-dihydro-5H-pyrrolo[1,2-a]imidazol-3-yl)quinoxaline]	IC50 ([1]; read-out: GDF8: inhibition of GDF8 signaling, GDF pSMAD (MPC11), p-SMAD3 (Ser423/425) AlphaScreen in cell lysate, GDF8 stimulation): > 1 µM; IC50 ([2]; read-out: TGF-β: inhibition of TGF-β signaling, TGF-β pSMAD (MPC-11), p-SMAD3 (Ser423/425) AlphaScreen in cell lysate, TGF-β stimulation): > 1 µM
< 0.05	0.05 to 0.1	Fc1cc(F)c(-c2nc3occn3c2-c2ccc3ncccc3c2)cc1F [Compound 150, 5-(quinolin-6-yl)-6-(2,4,5-trifluorophenyl)imidazo[2,1-b]oxazole]	–
–	–	NC(=O)C1CCC2(CC1)Cc1nc(-c3ccc(F)cc3)c(-c3ccc4ncnn4c3)n1C2 (centres unmarked) [Compound 80, 3′-([1,2,4]triazolo[1,5-a]pyridin-6-yl)-2′-(4-fluorophenyl)-5′H,7′H-spiro[cyclohexane-1,6′-pyrrolo[1,2-a]imidazole]-4-carboxamide]	IC50 [1, 3]: > 1 µM; IC50 [2, 4]: > 1 µM
–	–	OCC1CCC2(CC1)Cc1nc(-c3ccc(F)cc3)c(-c3ccc4ncnn4c3)n1C2 (centres unmarked) [Compound 75, (3′-([1,2,4]triazolo[1,5-a]pyridin-6-yl)-2′-(4-fluorophenyl)-5′H,7′H-spiro[cyclohexane-1,6′-pyrrolo[1,2-a]imidazol]-4-yl)methanol]	IC50 [1, 3]: > 1 µM; IC50 [2, 4]: > 1 µM
–	–	Fc1cc(F)cc(-c2nc3n(c2-c2ccc4ncccc4c2)CCC3)c1 [Compound 234, 6-(2-(3,5-difluorophenyl)-6,7-dihydro-5H-pyrrolo[1,2-a]imidazol-3-yl)quinoline]	IC50 [1, 3]: > 1 µM; IC50 [2, 4]: > 1 µM
< 0.05	0.05 to 0.1	Fc1ccc(-c2nc3occn3c2-c2ccc3[nH]ncc3c2)cc1 [Compound 126, 6-(4-fluorophenyl)-5-(1H-indazol-5-yl)imidazo[2,1-b]oxazole]	–
< 0.05	0.05 to 0.1	NC(=O)c1cnc2ccc(-c3c(-c4ccc(F)c(Cl)c4)nc4n3CCC4)cn12 [Compound 51, 6-(2-(3-chloro-4-fluorophenyl)-6,7-dihydro-5H-pyrrolo[1,2-c]imidazol-3-yl)imidazo[1,2-c]pyridine-3-carboxamide]	–
> 1	> 1	Cc1cc(-c2nc3n(c2-c2ccc4cn[nH]c4c2)CCC3)c(F)cc1Cl [Compound 252, 6-(2-(4-chloro-2-fluoro-5-methylphenyl)-6,7-dihydro-5H-pyrrolo[1,2-a]imidazol-3-yl)-1H-indazole]	–
< 0.05	0.1 to 1	Fc1ccc(-c2nc3n(c2-c2ccc4ncnn4c2)CCC3)cc1Cl [Compound 36, 6-(2-(3-chloro-4-fluorophenyl)-6,7-dihydro-5H-pyrrolo[1,2-a]imidazol-3-yl)-[1,2,4]triazolo[1,5-a]pyridine]	–
0.1 to 1	> 1	Fc1cc(F)c(F)c(-c2nc3n(c2-c2ccc4ncccc4c2)CCC3)c1 [Compound 237, 6-(2-(2,3,5-trifluorophenyl)-6,7-dihydro-5H-pyrrolo[1,2-a]imidazol-3-yl)quinoline]	–
< 0.05	< 0.05	Fc1ccc(Cl)cc1-c1nc2n(c1-c1ccc3ncnn3c1)CCC2 [Compound 82, 6-(2-(5-chloro-2-fluoro)-6,7-dihydro-5H-pyrrolo[1,2-a]imidazol-3-yl)-[1,2,4]triazolo[1,5-a]pyridine]	–
> 1	> 1	Cc1cc(-c2nc3n(c2-c2ccc4nccnc4c2)CCC3)cc(C)c1Cl [Compound 245, 6-(2-(4-chloro-3,5-dimethylphenyl)-6,7-dihydro-5H-pyrrolo[1,2-a]imidazol-3-yl)quinoxaline]	–
